Tests used:
[1] = system: bovine serum albumin (BSA) antibodies; experiment: Adjuvant character in the aqueous phase: anti-albumin antibodies by passive hemagglutination; assay type: in vivo, Swiss mice; conditions: for Antibody Titer Secondary Response / Antibody Titer Primary Response: Swiss mice, 100 μg s.c. with 0.5 mg BSA in isotonic saline; for Antibody Titer Secondary Response: after booster 0.1 mg BSA at 30 days; for Antibody Titer Primary Response: maximum serum dilution agglutinating; for level of antibodies formed: administered in isotonic saline solution
Method: In this series of trials of which the results are indicated below, the influence of the active principle according to the invention on the level of anti-albumin antibodies under the following conditions, were studied.
Groups of 8 Swiss mice aged two months received, by sub-cutaneous injection, 0.5 mg of antigen constituted by bovine serum albumin (BSA) with or without the tested substance in isotonic saline solution. This high dose of antigen, because it is situated at the limit of the paralysing dose with respect to the immune response, results for this reason, in a weak or nil response to the antigen alone in the controls; it therefore constitutes a severe criterion for establishing the activity of an adjuvant substance. Thirty days later, the mice received, by the same route of administration, a booster containing 0.1 mg of the same antigen.
By way of comparison, the adjuvant effect was studied simultaneously of 2-(2-acetamido-2-deoxy-3-O-D-glucopyranosyl)-D-propionyl-L-alanyl-D-isoglutamine (MDP) known for its adjuvant properties.
The antibody level is determined by passive hemagglutination using sheep's red blood cells treated with formalin and covered with the antigen studied according to the method described by A. A. HIRATA and M. W. BRANDISS (J. Immunol., 100, 641-648, 1968). Samples were taken respectively after the first injection of antigen and after injection of the booster to determine the primary and secondary responses.
The antibody titers express the maximum serum dilution agglutinating a given amount of sheep's red blood cells.

[2] = system: ovalbumin specific antibodies / delayed hypersensitivity; experiment: Adjuvant character in the presence of an oily phase (FIA): ovalbumin antibodies and delayed hypersensitivity; assay type: in vivo, Hartley guinea pigs; conditions: for Serum Antibodies / Cutaneous test (diameter in mm): guinea pigs; for Serum Antibodies: 0.1 mg in FIA emulsion with 1 mg ovalbumin, intradermal, day 21, nitrogen precipitatable by the antigen; for Cutaneous test (diameter in mm): 0.1 mg in FIA emulsion, 0.01 mg ovalbumin intradermal at day 18, read 48 hours later; for delayed hypersensitivity reaction / level of antibodies formed: administered in an oily emulsion
Method: In these tests, the growth of the specific antibody level of a given antigen is followed when the latter is injected, with or without the adjuvant compound according to the invention, in a water in oil emulsion.
The tests were carried out on batches of 6 female Hartley guinea pigs of 350 g. The administration was done by intradermal injection into the plantar pad of each of the rear paws. The ovalbumin (constituting the antigen) at the dose of 1 mg is prepared in 0.1 ml of a saline isotonic solution emulsion, in an oily phase constituted by the Freund incomplete adjuvant (FIA). The compound according to the invention is administered at the dose of 0.1 mg added in the emulsion containing the FIA.
As previously, by way of comparison, a test was carried out with MDP in place of the product according to the invention.
Eighteen days after this immunization, possible reactions are sought of delayed hypersensitivity to the antigen by injecting by the intradermal route 0.01 mg of ovalbumin into the side of the animals, and there was observed, 48 hours later, the reaction at the point of injection. The diameter in millimeters of the reaction thus-caused was measured.
Twenty-one days after the injection, the animals were bled. In the serum collected, the content is measured of specific antibodies of ovalbumin by precipitation of the antibody-antigen complex in the equivalence zone. The amount of protein nitrogen contained in this precipitate was estimated by the method of Folin. These values express the amount, in micrograms, of nitrogen precipitatable by the antigen, per […] of serum.

total blood = experiment: Influence on coagulation mechanisms: recalcification coagulation time after incubation with total blood; assay type: cell-based, rabbit; conditions: for coagulation time: 100 μg per 1 ml total blood; for effect on coagulation: contrary to LPS
Description: It is known, from recent studies, that compounds having adjuvant properties like LPS can have side effects. Thus it has been observed in the rabbits that the administration of LPS has a tendency to shorten the coagulation time. The reasons for this phenomena are not fully known; nonetheless, it has seemed useful to determine the effect of the products according to the invention on coagulation under the same conditions.
For these tests, the test described by LERNER et col. in Thrombosis Research, Vol. 11, pp. 253-261, 1977, "Endotoxin induced disseminated intravascular clotting: evidence that it is mediated by neutrophile production of tissue factor", was used.
The total blood was divided into two portions of which one was centrifuged to obtain platelet-free plasma (PFP).
1 ml of total blood was incubated in a plastic tube in the presence of 100 μg of the product to be tested.
Tubes were also prepared containing 0.1 ml of PFP to which every hour, from 0 to 5 hours, were added 0.1 ml of incubation mixture, then these were recalcified by 0.1 ml of 0.025M calcium chloride.
The coagulation time was noted and the pro-coagulating activity was deduced therefrom as a function of the shortening of the coagulation time with respect to the control, physiological water. The result was compared with that of a highly pro-coagulant reference standard, the LPS.
The coagulation times are expressed in seconds.

[3] = Pyrogenicity: maximum temperature variation in rabbits during three hours after administration; assay type: in vivo, rabbit; conditions: three hours following administration
Method: In the course of tests on rabbits, the maximum temperature variations during the three hours following administration were followed. For doses as high as 5 mg/kg or more of product, no significant variation in temperature is observed. Thus the average rise in temperature for administration to rabbits, for different esters of Mur-NAc-L-Ala-D-Gln is: […]

Klebsiella pneumoniae = experiment: Anti-infection activity with respect to Klebsiella (mouse survival); assay type: in vivo; conditions: for anti-infectious activity: higher percentage of survivors than control group
Description: The testing procedure is described in the article CHEDID L. et col., Proc. Natl. Acad. Sci. USA 1977, 74: 2089.
It was shown that a dose of 1 to 2.10^4 Klebsiella pneumoniae, injected by the intramuscular route to mice, results in the progressive death of a considerable part, if not of the whole, of the animals in the week following inoculation. After eight days, the survival of the remaining animals is finally achieved.
The survival of groups of mice inoculated under the above-indicated conditions and treated by means of the products according to the invention, was followed.
For these tests, hybrid mice (C571B1/6×AKR)F1 raised at the INSTITUT PASTEUR were used, there mice being raised from strains coming from the C.N.R.S. breeding station at ORLEANS.
Infection by Klebsiella pneumoniae, capsular type 2, biotype d, strain was effected with a 16 hour culture in medium for pneumococci (No. 53515, INSTITUT PASTEUR) was effected. The infecting dose was 2.10^4 Klebsiella; it was administered by the intramuscular route.
The administration of the tested product is effected by the intravenous route in 0.2 ml of apyrogenic physiological solution, the controls receiving the solution alone. It is carried out 24 hours before the inoculation.

[4] = in vivo; cited from earlier work
[5] = cited from earlier work

Compound	Antibody Titer Secondary Response [1]	Antibody Titer Primary Response [1]	Serum Antibodies [2]	Cutaneous test (diameter in mm) [2] [mm]	coagulation time (total blood; incubation 0 h) [s]	coagulation time (total blood; incubation 2 h) [s]	coagulation time (total blood; incubation 3 h) [s]	coagulation time (total blood; incubation 4 h) [s]	coagulation time (total blood; incubation 5 h) [s]	effect on coagulation (total blood)	level of antibodies formed [1]	delayed hypersensitivity reaction [2]	level of antibodies formed [2]	anti-infectious activity (Klebsiella pneumoniae)	average rise in temperature ([3]; at 10 mg/kg) [°C]	also measured
CC(=O)N[C@@H]1[C@@H](O[C@H](C)C(=O)N[C@@H](C)C(=O)N[C@H](CCC(=O)O)C(N)=O)[C@H](O)[C@@H](CO)O[C@H]1O [MDP, 2-(2-acetamido-2-deoxy-3-O-D-glucopyranosyl)-D-propionyl-L-alanyl-D-isoglutamine, reference compound]	300 ± 100	50	5,000 μg/ml	15												
COC(=O)[C@@H](CCC(N)=O)NC(=O)[C@H](C)NC(=O)[C@@H](C)O[C@H]1[C@H](O)[C@@H](CO)OC(O)[C@@H]1NC(C)=O (stereo partly drawn) [Mur--NAc--L-Ala--D-Glu(NH2)--OCH3, Methyl ester of N-acetyl-muramyl-L-alanyl-D-glutamine]	500 ± 150	100	6,000 μg/ml	17	125	118	109	110	104	do not accelerate coagulation	considerable increase in the level of antibodies formed	induces a delayed hypersensitivity reaction	very considerable increase in the level of antibodies formed			average rise in temperature ([3]; at 5 mg/kg): 0.53 °C
CCCCCCCCCCOC(=O)C(CCC(N)=O)NC(=O)C(C)NC(=O)C(C)OC1C(O)C(CO)OC(O)C1NC(C)=O [decyl ester, n-decyl ester of N-acetyl-muramyl-L-alanyl-D-glutamine]														anti-infectious activity	0.23	
CC(=O)N[C@H]1C(O)O[C@H](CO)[C@@H](O)[C@@H]1O[C@H](C)C(=O)N[C@@H](C)C(=O)N[C@H](CCC(N)=O)C(N)=O (stereo partly drawn) [diamide of N-acetyl-muramyl-L-alanyl-D-glutamic acid]																pyrogenicity [4]: very low level of pyrogenicity; adjuvant activity compared with N-acetyl-muramyl-L-alanyl-D-isoglutamine ([5]; in vivo): less active
COC(=O)CC[C@@H](NC(=O)[C@H](C)NC(=O)C(C)O[C@H]1[C@H](O)[C@@H](CO)O[C@H](O)[C@@H]1NC(C)=O)C(=O)OC (stereo partly drawn) [dimethyl ester of N-acetyl-muramyl-L-alanyl-D-glutamic acid]																adjuvant activity in oil compared with γ-methylester of N-acetyl-muramyl-L-alanyl-D-isoglutamine ([5]; in oil, ADAM et coll. 1976): lesser adjuvant activity in oil
n-butyl ester of N-acetyl-muramyl-L-alanyl-D-glutamine [Mur--NAc--L-Ala--D-Glu(NH2)--OC4 H9]	600 ± 200	12	2,000 μg/ml	8	129	120	122	114	108	do not accelerate coagulation	considerable increase in the level of antibodies formed	induces a delayed hypersensitivity reaction	very considerable increase in the level of antibodies formed	anti-infectious activity	0.30	% Protection (Klebsiella pneumoniae; mice, 2.10^4 Klebsiella i.m., product i.v. 24 hours before inoculation): 63%; % Survival D3 (Klebsiella pneumoniae; mice, 2.10^4 Klebsiella i.m., product i.v. 24 hours before inoculation, day 3): 92%; % Survival D5 (Klebsiella pneumoniae; mice, 2.10^4 Klebsiella i.m., product i.v. 24 hours before inoculation, day 5): 75%; % Survival D10 (Klebsiella pneumoniae; mice, 2.10^4 Klebsiella i.m., product i.v. 24 hours before inoculation, day 10): 75%

Source: US4693998A, “Novel compounds of the muramyl peptide” (Agence Nationale de Valorisation de la Rechersche, priority 1978, dated 1987)
